The subject of data set [1] is SKBr-3 cells (human breast cancer cells). Briefly: MTS cell viability drug combination assay, combination index, SKBr-3. The class given is cell-based. The settings on record: CI<1 synergism. How it is done:
(§1) Human colon adenocarcinoma cell line, DLD-1, and human breast adenocarcinoma cell line, SKBr-3, were obtained from American Type Culture Collection (manassas, Va.). DLD-1 cells were maintained in RPMI 1640 medium supplemented with 10% fetal bovine serum, and SKBr-3 cells were cultured in McCoy's 5a medium supplemented with 10% fetal bovine serum. 17-DMAG and 17-AAG were obtained using published procedures. Other cytotoxic agents were purchased commercially from suppliers such as Sigma Chemical Co. (St. Louis, Mo.) and Sequoia Research Products (Oxford, UK).
(§2) Cells were seeded in duplicate in 96-well microtiter plates at a density of 5,000 cells per well and allowed to attach overnight. Cells were treated with 17-AAG or 17-DMAG and the corresponding antimitotic at varying concentrations, ranging from 0.5 picomolar (“pM”) to 50 micromolar (“μM”), for 3 days. Cell viability was determined using the MTS assay (Promega). For the drug combination assay, cells were seeded in duplicate in 96-well plates (5,000 cells/well). […] Based on the IC50 values of each individual drug, combined drug treatment was designed at constant ratios of two drugs, i.e., equivalent to the ratio of their IC50. Two treatment schedules were used: In one schedule, the cells were exposed to 24 hours of 17-AAG or 17-DMAG. The drug was then added to the cells and incubated for 48 hours. In another schedule, cells were exposed to the drug alone for 24 hours followed by addition of 17-AAG or 17-DMAG for 48 hours. Cell viability was determined by the MTS assay.
(§3) Synergism, additivity or antagonism was determined by median effect analysis using the combination index (CI) calculated using Calcusyn (Biosoft, Cambridge, UK). The combination index is defined as follows: CI=[D]1/[Dx]1+[D]2/[Dx]2
(§4) The quantities [D]1 and [D]2 represent the concentrations of the first and second drug, respectively, that in combination provide a response of x % in the assay. The quantities [Dx]1 and [Dx]2 represent the concentrations of the first and second drug, respectively, that when used alone provide a response of x % in the assay. Values of CI<1, CI=1, and CI>1 indicated drug-drug synergism, additivity, and antagonism respectively (Chou and Talalay 1984). The “enhancing” effect of two drugs can also be determined.

Data set [2] relates to DLD-1 cells (human colorectal cancer cells). Put plainly: MTS cell viability drug combination assay, combination index, DLD-1. It is filed as cell-based. The settings on record: CI<1 synergism. The procedure: as §1, §2, §3, §4
“Pre-administration” refers to the administration of 17-AAG to the cells before the administration of antimitotic; “post-administration” refers to the administration of 17-AAG to the cells after the administration of antimitotic.

The conditions of data set [3]: on administration; background statement; cited from earlier work.
Data set [4] deals with ErbB2-expressing cancer cells. The settings on record: ErbB2-expressing cancer cells in vitro; Citri et al. 2002; cited from earlier work.
For data set [5] the following is noted: clinical trials, cited from earlier work.
A further data set relates to breast cancer cells. The settings on record: cited from earlier work.
Setting [6] is: 17-AAG Post-Administration (antimitotic 24 h, then 17-AAG 48 h).
Setting [7] is: 17-AAG Pre-Administration (17-AAG 24 h, then antimitotic 48 h).

The structures appear in SMILES notation. Where two headings read alike, the source gives them in different places.

These results are taken from patent US7691838B2, “Method for treating diseases using HSP90-inhibiting agents in combination with antimitotics” (Kosan Biosciences Incorporated, priority 2003, dated 2010).

Regarding `CC(=O)O[C@@]12CO[C@@H]1C[C@H](O)[C@@]1(C)C(=O)[C@H](O)C3=C(C)[C@@H](OC(=O)[C@H](O)[C@@H](NC(=O)OC(C)(C)C)c4ccccc4)C[C@@](O)([C@@H](OC(=O)c4ccccc4)[C@H]21)C3(C)C` [Docetaxel, docetaxel], the “CI value (combination index) of antimitotic with 17-AAG” value (shortened to “CI value (combination index)”) in data set [1] (setting [6]) turned out to be 0.59 ± 0.26; in data set [1] (setting [7]), 0.53 ± 0.11; in data set [2] (setting [6]) it was 0.29 ± 0.12; in data set [2] (setting [7]) it was 0.79 ± 0.15.
In the case of `COC1=C2C[C@@H](C)C[C@H](OC)[C@H](O)[C@@H](C)/C=C(\C)[C@H](OC(N)=O)[C@@H](OC)/C=C\C=C(/C)C(=O)NC(=CC1=O)C2=O` [geldanamycin, Geldanamycin], in data set [3], the hepatotoxicity result was “unacceptable hepatotoxicity”. The “combination effect on growth, co-administration with CI-1033” value in data set [4] is given as “additive effect”.
In the case of `CC[C@]1(O)C[C@@H]2CN(CCc3c([nH]c4ccccc34)[C@@](C(=O)OC)(c3cc4c(cc3OC)N(C)[C@H]3[C@@](O)(C(N)=O)[C@H](O)[C@]5(CC)C=CCN6CC[C@]43[C@@H]65)C2)C1` [Vindesine, vindesine], the entries for the “CI value (combination index)” value in data set [2] (setting [6]) and in data set [2] (setting [7]) were 0.68 ± 0.08 and 0.91 ± 0.41, respectively.
Regarding `C=CC(=O)Nc1cc2c(Nc3ccc(F)c(Cl)c3)ncnc2cc1OCCCN1CCOCC1` [CI-1033], the “combination effect on growth, with anti-ErB2 antibody Herceptin” value in data set [4] is “antagonistic effect”.
As to `C=CCNC1=C2C[C@@H](C)C[C@H](OC)[C@H](O)[C@@H](C)/C=C(\C)[C@H](OC(N)=O)[C@@H](OC)/C=C\C=C(/C)C(=O)NC(=CC1=O)C2=O` [17-AAG, 17-allylamino-17-desmethoxygeldanamycin], the “MTD (maximum tolerated dose)” value in data set [5] (daily×5 schedule) was “about 40 mg/m^2”; in data set [5] (once-weekly regimen), “about 308 mg/m^2”; in data set [5] (twice-weekly regimen), “about 220 mg/m^2”. Besides, the hepatotoxicity result in data set [3] is listed as “reduced hepatotoxicity”. Besides, the “sensitization of cells to cytotoxic effects of other drugs” value in the data set with breast cancer cells (cells in culture, Münster et al. 2001) was “sensitizes cells in culture to the cytotoxic effects of Paclitaxel and doxorubicin”.
In the case of `C/C1=C/C[C@@H](/C(C)=C/c2csc(C)n2)OC(=O)C[C@H](O)C(C)(C)C(=O)[C@H](C)[C@@H](O)[C@@H](C)CCC1` [Epothilone D, epothilone D], the “CI value (combination index)” value in data set [1] (setting [6]) was 0.58 ± 0.009; in data set [1] (setting [7]), 0.72 ± 0.07; in data set [2] (setting [6]) it was 0.61 ± 0.12; in data set [2] (setting [7]), 0.84 ± 0.06.
For the compound `CC[C@]1(O)C[C@@H]2CN(CCc3c([nH]c4ccccc34)[C@@](C(=O)OC)(c3cc4c(cc3OC)N(C)[C@H]3[C@@](O)(C(=O)OC)[C@H](OC(C)=O)[C@]5(CC)C=CCN6CC[C@]43[C@@H]65)C2)C1` [Vinblastine, vinblastine], the “CI value (combination index)” value in data set [1] (setting [6]) is 0.68 ± 0.41; in data set [1] (setting [7]) it was 0.39 ± 0.03; in data set [2] (setting [6]), 0.38 ± 0.11; in data set [2] (setting [7]) it was 0.92 ± 0.3.
As to `CC(=O)O[C@H]1C(=O)[C@@]2(C)[C@H]([C@H](OC(=O)c3ccccc3)[C@]3(O)C[C@H](OC(=O)[C@H](O)[C@@H](NC(=O)c4ccccc4)c4ccccc4)C(C)=C1C3(C)C)[C@]1(OC(C)=O)CO[C@@H]1C[C@@H]2O` [paclitaxel], the “apoptosis, combination with 17-AAG” value in the data set with breast cancer cells (coincident treatment with paclitaxel and 17-AAG, retinoblastoma protein-producing cells) is “synergistic apoptosis”; in the data set on breast cancer cells (paclitaxel followed by 17-AAG 4 hours later) it was “synergistic effect similar to coincident treatment”; with breast cancer cells (pretreatment with 17-AAG followed by paclitaxel), “abrogation of apoptosis”.
For `CC[C@]1(O)C[C@H]2CN(CCc3c([nH]c4ccccc34)[C@@](C(=O)OC)(c3cc4c(cc3OC)N(C=O)[C@H]3[C@@](O)(C(=O)OC)[C@H](OC(C)=O)[C@]5(CC)C=CCN6CC[C@]43[C@@H]65)C2)C1` [Vincristine, vincristine], the “CI value (combination index)” value in data set [1] (setting [6]) amounted to 0.99 ± 0.73; in data set [1] (setting [7]), 0.67 ± 0.37; in data set [2] (setting [6]), 0.42 ± 0.08; in data set [2] (setting [7]), 0.96 ± 0.3.
